Test results as given in the supplement of paper PMC8967900.

What was measured:
Test in all cases: selective drug sensitivity score (sDSS, relative to normal bone marrow) (sDSS (score)); higher = more potent and effective on the cell line relative to normal bone marrow cells
Conditions in all cases: 72 h
[1] = tested on: JURKAT
[2] = tested on: MOLT-4
[3] = tested on: COG-LL-402h
[4] = tested on: MHH-CALL-3
[5] = tested on: PF-382
[6] = tested on: KASUMI-2
[7] = tested on: KASUMI-9
[8] = tested on: HPB-ALL
[9] = tested on: KOPN-8
[10] = tested on: COG-LL-394h
[11] = tested on: NALM-6
[12] = tested on: 380
[13] = tested on: TMD5
[14] = tested on: 697
[15] = tested on: KASUMI-10
[16] = tested on: NALM-16
[17] = tested on: ALL-SIL
[18] = tested on: CCRF-CEM
[19] = tested on: MHH-CALL-4
[20] = tested on: COG-LL-317
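Further: ALL cell lines in 384-well plates, five doses spanning 10,000-fold, each plate scaled between vehicle and 100 µmol/L benzalkonium chloride controls, sDSS an adapted area-under-curve metric.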

SMILES	selective drug sensitivity score [1]	selective drug sensitivity score [2]	selective drug sensitivity score [3]	selective drug sensitivity score [4]	selective drug sensitivity score [5]	selective drug sensitivity score [6]	selective drug sensitivity score [7]	selective drug sensitivity score [8]	selective drug sensitivity score [9]	selective drug sensitivity score [10]	selective drug sensitivity score [11]	selective drug sensitivity score [12]	selective drug sensitivity score [13]	selective drug sensitivity score [14]	selective drug sensitivity score [15]	selective drug sensitivity score [16]	selective drug sensitivity score [17]	selective drug sensitivity score [18]	selective drug sensitivity score [19]	selective drug sensitivity score [20]
Cc1c(F)cc(C(=O)NC2CC2)cc1-c1ccc(C(=O)NCC(C)(C)C)cn1 [Losmapimod] (top concentration 10000 nM)	-0.18	-0.18	0.42	-0.18	0.02	-0.18	6.92	2.32	4.42	-0.18	0.82	-0.18	-0.18	2.72	-0.18	-0.18	-0.18	-0.18	-0.18	-0.18
C[C@]12CC[C@H](O)CC1=CC[C@@H]1[C@@H]2CC[C@]2(C)C(c3cccnc3)=CC[C@@H]12 [Abiraterone] (top concentration 5000 nM)	0.18	-0.12	-0.12	-0.12	-0.12	-0.12	-0.12	-0.12	1.78	-0.12	-0.12	0.58	-0.12	-0.12	-0.12	-0.12	-0.12	-0.12	0.28	-0.12
O=c1[nH]cc(F)c(=O)[nH]1 [Fluorouracil] (top concentration 10000 nM)	0.16	2.76	3.36	-0.24	-0.64	1.56	3.26	-0.24	2.96	-0.34	1.86	1.86	-0.64	3.46	2.96	-0.24	-0.64	3.06	-0.14	8.26
CNC(=O)c1ccc(-c2cnc3ncc(Cc4ccc5ncccc5c4)n3n2)cc1F [Capmatinib] (top concentration 1000 nM)	-0.06	-0.06	0.74	-0.06	-0.06	-0.06	-0.06	-0.06	-0.06	-0.06	0.24	2.04	-0.06	-0.06	-0.06	-0.06	-0.06	0.04	-0.06	0.34
COc1cc(NS(C)(=O)=O)ccc1Nc1c2ccccc2nc2ccccc12 [Amsacrine] (top concentration 10000 nM)	7.96	21.3	16.8	23.5	10.9	21.7	16	2.56	18.3	8.26	10.7	23.2	3.86	20.6	11	0.66	10.2	15.1	13.2	25.8
C=C1C[C@@H]2CC[C@@]34C[C@H]5O[C@H]6[C@@H](O3)[C@H]3O[C@H](CC[C@@H]3O[C@H]6[C@H]5O4)CC(=O)C[C@@H]3[C@@H](OC)[C@@H](C[C@H](O)CN)O[C@H]3C[C@H]3O[C@@H](CC[C@@H]1O2)C[C@@H](C)C3=C [Eribulin] (top concentration 1000 nM)	26.9	23.3	17.3	13.1	15.1	15.5	24	13.2	27	6.7	16	24.2	12.5	19.5	20.2	17.1	23.2	19.9	5.6	26.3
CS(=O)(=O)CCNCc1ccc(-c2ccc3ncnc(Nc4ccc(OCc5cccc(F)c5)c(Cl)c4)c3c2)o1 [Lapatinib] (top concentration 1000 nM)	0	0	0	0	0	0	0.2	0	0	0	0	0	0	0	0	0	0	0	0	0
Cc1c(Cn2c(C)nc3c(C(=O)O)cc(N4CCOCC4)cc32)cccc1C(F)(F)F (top concentration 10000 nM)	-0.02	-0.02	3.68	-0.02	-0.02	-0.02	1.08	-0.02	0.38	-0.02	-0.02	-0.02	-0.02	1.28	-0.02	-0.02	-0.02	0.38	0.58	2.28
O=C1CN2Cc3c(ccc(Cl)c3Cl)N=C2N1 [Anagrelide] (top concentration 10000 nM)	0	0	0	0	0	0	0	0	3.4	0	0	0.1	0	0	0	0	2.8	0	0.6	0
CC1(C)NC(=O)N(c2ccc([N+](=O)[O-])c(C(F)(F)F)c2)C1=O [Nilutamide] (top concentration 10000 nM)	1.32	-0.48	-0.48	-0.48	-0.08	-0.48	-0.28	-0.48	-0.48	-0.48	1.82	-0.48	3.42	0.22	0.22	-0.48	0.82	-0.48	2.02	-0.48
COc1cc2c(cc1OCCCN1CCCC1)N=C(N)C21CCC1 [A-366] (top concentration 25000 nM)	-1.04	1.36	-1.84	-1.84	-0.84	-1.84	2.36	-1.84	-0.64	2.06	-1.84	-1.84	-1.84	-1.34	1.46	-1.84	-0.34	2.16	-0.34	3.06
Nc1nc(N)c2nc(-c3cccc(O)c3)c(-c3cccc(O)c3)nc2n1 [TG100-115] (top concentration 10000 nM)	-0.3	-0.4	-0.4	-0.4	-0.2	-0.4	1.6	-0.4	2.7	-0.4	-0.4	2.1	3	0.7	0.1	0.5	0.7	0.4	-0.4	-0.1
COc1cc2ncnc(Nc3ccc(F)c(Cl)c3)c2cc1NC(=O)/C=C/CN1CCCCC1 [Dacomitinib] (top concentration 1000 nM)	-1.64	-1.54	0.96	2.06	-0.94	-1.64	0.96	-1.54	-0.34	-1.64	-1.64	-1.64	1.46	-0.34	-0.54	-1.54	-1.04	0.26	1.86	-0.44
Cc1ccc(F)c(NC(=O)Nc2ccc(-c3cccc4[nH]nc(N)c34)cc2)c1 [Linifanib] (top concentration 1000 nM)	-1.12	-1.12	-1.12	-1.12	-1.12	-1.12	-1.12	-1.12	-1.12	-1.12	-1.12	-1.12	-1.12	-1.12	6.08	-1.12	-1.12	-1.02	-1.12	-1.12
Oc1ncnc2[nH]ncc12 [Allopurinol] (top concentration 10000 nM)	-0.64	-0.64	-0.64	-0.64	-0.64	-0.64	-0.64	6.06	-0.64	-0.64	-0.04	-0.64	-0.64	-0.64	-0.64	-0.64	-0.14	-0.24	-0.64	-0.64
CC/C(=C(\c1ccccc1)c1ccc(OCCN(C)C)cc1)c1ccccc1 [Tamoxifen] (top concentration 10000 nM)	-1.48	-0.98	1.22	-2.48	1.72	5.72	1.52	6.02	7.92	2.32	0.42	0.02	-0.48	1.62	-3.28	-3.18	3.12	0.82	0.52	1.42
CCNC(=O)CCC/C=C\C[C@@H]1[C@@H](/C=C/[C@@H](O)CCc2ccccc2)[C@H](O)C[C@@H]1O [Bimatoprost] (top concentration 5500 nM)	0	0	0	0	0	2.5	0	0.5	0	0	0	0	0	0	0	0	0	0	0.5	0
N#CC(c1ccnc(OCc2ccc(CN3CCOCC3)cc2)n1)c1nc2ccccc2s1 (stereo not given) [Bentamapimod] (top concentration 10000 nM)	3.94	1.74	1.54	-0.46	3.84	-0.46	6.24	3.34	5.64	3.44	2.44	-0.46	0.74	5.14	-0.46	-0.46	2.34	3.94	-0.46	3.34
